Laboratory results taken from publication PMC5458547, “Discovery of first-in-class reversible dual small molecule inhibitors against G9a and DNMTs in hematological malignancies” (Nature Communications, 2017).
≈ marks a conversion by molar mass, not a printed value.

How the values were obtained:
DNMT3B = biological target: T1, DNMT3B (Homo sapiens, UniProt Q9UBC3); assay: Epigenetics selectivity panel (BPS Bioscience); type: biochemical
T1 construct: purchased BPS Bioscience (contract panel)

PRMT1 = biological target: T2, PRMT1 (Homo sapiens, UniProt Q99873); assay: Epigenetics selectivity panel (BPS Bioscience); type: biochemical
T2 construct: purchased BPS Bioscience (contract panel)

PRMT8 = biological target: T3, PRMT8 (Homo sapiens, UniProt Q9NR22); assay: Epigenetics selectivity panel (BPS Bioscience); type: biochemical
T3 construct: purchased DiscoverX KINOMEscan (kinases); BPS Bioscience (epigenetic targets)

SETD2 = biological target: T4, SETD2 (Homo sapiens, UniProt Q9BYW2); assay: Epigenetics selectivity panel (BPS Bioscience); type: biochemical
T4 construct: purchased DiscoverX KINOMEscan (kinases); BPS Bioscience (epigenetic targets)

JMJD2A = biological target: T5, JMJD2A (Homo sapiens, UniProt O75164); assay: Epigenetics selectivity panel (BPS Bioscience); type: biochemical
T5 construct: purchased DiscoverX KINOMEscan (kinases); BPS Bioscience (epigenetic targets)

JMJD2C = biological target: T6, JMJD2C (Homo sapiens, UniProt Q9H3R0); assay: Epigenetics selectivity panel (BPS Bioscience); type: biochemical
T6 construct: purchased DiscoverX KINOMEscan (kinases); BPS Bioscience (epigenetic targets)

Jarid1B = biological target: T7, Jarid1B (Homo sapiens, UniProt Q9UGL1); assay: Epigenetics selectivity panel (BPS Bioscience); type: biochemical
T7 construct: purchased DiscoverX KINOMEscan (kinases); BPS Bioscience (epigenetic targets)

cytochrome P450 1A2 = biological target: T8, cytochrome P450 1A2 (Homo sapiens, UniProt P05177); assay: CYP inhibition in human liver microsomes; type: in vitro ADME; conditions: 10 µM
T8 construct: tissue BD Gentest; host or cells: human liver microsomes
Method: Positive control was obtained in the presence of the vehicle of the compounds. Negative control was obtained in the absence of HDAC enzyme activity. A best fit curve was fitted using GraphPad Prism 5 to derive the half maximal inhibitory concentration (IC50) from this curve. Results are the average of two […]
3A4) was evaluated in human liver microsomes at Wuxi (http://www.wuxi.com/). Test compounds (10 µM) and the corresponding substrates for each P450 isoform (20 µL) were incubated with 140 µL liver […]
reaction was terminated by adding 400 µL cold stop solution (200 ng/mL tolbutamide in ACN) and samples were centrifuged at 4000 rpm for 20 minutes. Supernatants were analyzed by LC-MS/MS (Shimadzu LC 20-AD - API 4000), using peak area ratio of analyte/internal standard. Test compounds and positive controls were tested in duplicates. The percentage of inhibition was calculated as the ratio of substrate metabolite detected in treated and non-treated wells.
This study was conducted by Equilibrium Dialysis at Wuxi (http://www.wuxi.com/). HT-Dialysis plate (Model HTD 96 b, Cat# 1006) and the dialysis membrane (molecular weight cut off 12-14 kDa, Cat# 1101) were purchased from HT Dialysis LLC (Gales Ferry, CT). Human plasma and CD-1 mouse plasma from Bioreclamation were thawed prior to experiment and the pH was adjusted at 7.4. […]
Results are the average of three replicates. […]

Kinetic solubility = type: physicochemical; conditions: aqueous buffer, kinetic from dmso stock, pH 7.4, 50 mM phosphate buffer
Method: This study was conducted at Wuxi (http://www.wuxi.com/) at pH 7.4 (50 mM phosphate buffer). […]
The pH was adjusted to 7.40±0.05 using either 1 M sodium hydroxide or 1 M hydrochloric acid. Test compounds were diluted to 0.2 mM in DMSO and further diluted prior to testing to 10 µM in PBS, pH 7.4 (final 5% DMSO). The assay was performed using a 96-well multiscreen-IP PAMPA plate (Millipore, Cat. # MAIPN4510), whose PVDF membrane was pre-coated with 5 µL of 1% lecithin/dodecane mixture. 150 µL of PBS solution containing the test compounds were added to the donor chamber. Blank PBS (300 µL) was also added to the PTFE acceptor plate, and the donor and acceptor plates were assembled and incubated for 4 h at room temperature with shaking at 150 rpm. […]

PAMPA permeability = type: in vitro ADME; conditions: pH 7.4
[1] = Cytotoxicity in THLE-2 cells (ATP); type: cell-based; conditions: human; THLE-2, 72 h exposure; read-out: LC50
697 = assay: Cell proliferation assay (MTS); type: cell-based; conditions: Homo sapiens; ALL, 48 h
SEM cells = assay: Cell proliferation assay (MTS); type: cell-based; conditions: Homo sapiens; ALL, 48 h
NALM-20 = assay: Cell proliferation assay (MTS); type: cell-based; conditions: Homo sapiens; ALL, 48 h
HELA = assay: Cell proliferation assay (MTS); type: cell-based; conditions: Homo sapiens, Cervical
A375 = assay: Cell proliferation assay (MTS); type: cell-based; conditions: Homo sapiens, A-375; Melanoma
WM-35 = assay: Cell proliferation assay (MTS); type: cell-based; conditions: Homo sapiens, WM35; Melanoma
PC3 = assay: Cell proliferation assay (MTS); type: cell-based; conditions: Homo sapiens, PC-3; Prostate

T2 sequence (Q99873 whole entry): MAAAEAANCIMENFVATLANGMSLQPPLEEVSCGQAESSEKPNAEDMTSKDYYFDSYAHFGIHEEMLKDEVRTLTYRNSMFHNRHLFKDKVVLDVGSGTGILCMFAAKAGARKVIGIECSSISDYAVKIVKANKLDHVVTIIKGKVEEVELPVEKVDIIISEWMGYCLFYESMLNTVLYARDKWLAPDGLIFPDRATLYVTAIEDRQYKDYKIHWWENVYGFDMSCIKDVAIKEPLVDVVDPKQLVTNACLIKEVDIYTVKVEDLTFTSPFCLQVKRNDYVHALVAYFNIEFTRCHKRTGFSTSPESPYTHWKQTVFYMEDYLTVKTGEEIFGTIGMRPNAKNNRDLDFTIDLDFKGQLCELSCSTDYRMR
T6 sequence (Q9H3R0 whole entry): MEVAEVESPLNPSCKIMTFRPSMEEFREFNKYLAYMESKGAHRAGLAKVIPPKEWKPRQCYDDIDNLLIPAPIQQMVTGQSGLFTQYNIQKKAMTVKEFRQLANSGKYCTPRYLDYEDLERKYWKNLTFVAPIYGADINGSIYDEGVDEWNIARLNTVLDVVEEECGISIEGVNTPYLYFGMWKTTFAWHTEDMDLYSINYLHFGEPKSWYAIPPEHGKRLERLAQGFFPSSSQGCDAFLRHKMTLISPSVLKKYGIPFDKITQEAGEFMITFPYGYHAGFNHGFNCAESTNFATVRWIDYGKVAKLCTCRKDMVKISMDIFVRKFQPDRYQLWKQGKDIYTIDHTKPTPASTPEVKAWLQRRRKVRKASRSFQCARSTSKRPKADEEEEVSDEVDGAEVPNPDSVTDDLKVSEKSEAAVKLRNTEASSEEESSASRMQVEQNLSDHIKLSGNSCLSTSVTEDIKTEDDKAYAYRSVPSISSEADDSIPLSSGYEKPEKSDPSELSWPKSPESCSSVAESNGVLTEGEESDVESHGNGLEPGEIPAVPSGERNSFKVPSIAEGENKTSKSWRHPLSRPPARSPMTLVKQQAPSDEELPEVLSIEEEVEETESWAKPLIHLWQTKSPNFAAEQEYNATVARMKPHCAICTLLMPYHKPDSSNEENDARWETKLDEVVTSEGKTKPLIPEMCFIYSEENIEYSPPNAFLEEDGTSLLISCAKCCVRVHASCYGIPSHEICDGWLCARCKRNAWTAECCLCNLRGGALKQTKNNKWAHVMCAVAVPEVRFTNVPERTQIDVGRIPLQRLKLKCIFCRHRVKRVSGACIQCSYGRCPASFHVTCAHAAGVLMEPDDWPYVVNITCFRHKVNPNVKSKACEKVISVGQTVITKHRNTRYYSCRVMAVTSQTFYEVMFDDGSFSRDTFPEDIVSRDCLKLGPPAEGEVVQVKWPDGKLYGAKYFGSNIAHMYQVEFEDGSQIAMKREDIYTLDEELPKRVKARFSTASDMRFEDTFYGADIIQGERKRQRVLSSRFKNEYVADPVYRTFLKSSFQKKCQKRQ
T3 sequence (Q9NR22 whole entry): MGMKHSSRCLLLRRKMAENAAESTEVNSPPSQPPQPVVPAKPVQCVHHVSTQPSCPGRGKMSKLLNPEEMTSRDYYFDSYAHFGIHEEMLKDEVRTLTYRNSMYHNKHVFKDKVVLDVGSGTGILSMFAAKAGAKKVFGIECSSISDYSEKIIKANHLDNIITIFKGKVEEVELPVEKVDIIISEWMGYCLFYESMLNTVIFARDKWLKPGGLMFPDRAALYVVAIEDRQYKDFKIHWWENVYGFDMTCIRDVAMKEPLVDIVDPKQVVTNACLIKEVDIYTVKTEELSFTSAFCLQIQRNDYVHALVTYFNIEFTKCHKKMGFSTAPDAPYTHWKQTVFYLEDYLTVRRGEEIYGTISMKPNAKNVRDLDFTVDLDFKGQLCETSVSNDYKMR
T8 sequence (P05177 whole entry): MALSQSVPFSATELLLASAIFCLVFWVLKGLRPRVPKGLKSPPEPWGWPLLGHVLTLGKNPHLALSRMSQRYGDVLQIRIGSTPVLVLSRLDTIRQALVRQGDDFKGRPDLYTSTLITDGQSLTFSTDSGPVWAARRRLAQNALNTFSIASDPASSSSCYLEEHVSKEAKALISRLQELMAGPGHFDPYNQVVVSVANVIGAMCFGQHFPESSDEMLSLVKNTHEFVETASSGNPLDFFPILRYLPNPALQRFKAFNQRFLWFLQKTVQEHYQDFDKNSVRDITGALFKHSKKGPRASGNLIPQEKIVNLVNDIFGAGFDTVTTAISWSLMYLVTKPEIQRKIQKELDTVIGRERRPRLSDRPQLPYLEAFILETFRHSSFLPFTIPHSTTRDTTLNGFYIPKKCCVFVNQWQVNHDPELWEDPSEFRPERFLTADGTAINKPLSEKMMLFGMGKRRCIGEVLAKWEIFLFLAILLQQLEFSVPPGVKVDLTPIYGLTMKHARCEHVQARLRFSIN
T7 sequence (Q9UGL1 whole entry): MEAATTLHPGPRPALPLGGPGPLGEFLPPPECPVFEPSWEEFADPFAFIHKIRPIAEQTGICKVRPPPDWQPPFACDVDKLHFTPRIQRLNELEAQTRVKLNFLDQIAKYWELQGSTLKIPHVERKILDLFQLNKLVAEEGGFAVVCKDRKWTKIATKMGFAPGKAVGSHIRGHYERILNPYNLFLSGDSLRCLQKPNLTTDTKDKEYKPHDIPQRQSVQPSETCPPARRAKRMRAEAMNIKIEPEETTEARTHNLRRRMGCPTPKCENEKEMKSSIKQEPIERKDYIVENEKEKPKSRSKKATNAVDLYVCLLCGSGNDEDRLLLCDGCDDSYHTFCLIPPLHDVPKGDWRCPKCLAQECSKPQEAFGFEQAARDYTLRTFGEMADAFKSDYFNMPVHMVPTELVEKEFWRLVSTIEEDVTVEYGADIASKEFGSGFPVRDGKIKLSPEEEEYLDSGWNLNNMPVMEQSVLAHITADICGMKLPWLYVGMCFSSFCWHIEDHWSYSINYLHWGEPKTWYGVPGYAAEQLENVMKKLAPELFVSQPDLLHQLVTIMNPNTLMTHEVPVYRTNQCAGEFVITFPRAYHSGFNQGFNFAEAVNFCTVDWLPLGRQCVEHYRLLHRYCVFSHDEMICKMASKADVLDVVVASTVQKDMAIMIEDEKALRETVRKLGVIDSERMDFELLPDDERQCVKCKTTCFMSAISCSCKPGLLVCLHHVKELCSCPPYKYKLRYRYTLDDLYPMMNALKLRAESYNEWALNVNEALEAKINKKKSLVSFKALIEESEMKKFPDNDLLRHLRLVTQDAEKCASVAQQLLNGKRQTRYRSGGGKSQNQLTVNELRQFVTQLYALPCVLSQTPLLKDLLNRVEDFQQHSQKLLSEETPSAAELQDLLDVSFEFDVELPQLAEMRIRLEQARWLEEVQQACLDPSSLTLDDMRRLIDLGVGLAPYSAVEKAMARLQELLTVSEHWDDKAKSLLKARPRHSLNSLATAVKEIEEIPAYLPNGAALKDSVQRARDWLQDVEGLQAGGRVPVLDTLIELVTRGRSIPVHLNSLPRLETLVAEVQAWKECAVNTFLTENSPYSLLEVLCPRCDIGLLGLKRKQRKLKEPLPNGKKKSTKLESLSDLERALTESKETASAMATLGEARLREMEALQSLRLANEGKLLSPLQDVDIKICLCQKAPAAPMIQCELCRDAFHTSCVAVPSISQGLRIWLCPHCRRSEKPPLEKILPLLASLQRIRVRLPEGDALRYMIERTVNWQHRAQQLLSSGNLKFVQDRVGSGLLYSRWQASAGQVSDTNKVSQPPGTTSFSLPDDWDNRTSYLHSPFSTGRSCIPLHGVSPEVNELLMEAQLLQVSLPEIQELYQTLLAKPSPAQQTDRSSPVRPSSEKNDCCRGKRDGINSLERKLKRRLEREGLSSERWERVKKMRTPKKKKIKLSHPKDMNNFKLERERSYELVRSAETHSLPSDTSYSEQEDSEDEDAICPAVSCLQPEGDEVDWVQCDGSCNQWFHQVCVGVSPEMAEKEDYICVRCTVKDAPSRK
T5 sequence (O75164 whole entry): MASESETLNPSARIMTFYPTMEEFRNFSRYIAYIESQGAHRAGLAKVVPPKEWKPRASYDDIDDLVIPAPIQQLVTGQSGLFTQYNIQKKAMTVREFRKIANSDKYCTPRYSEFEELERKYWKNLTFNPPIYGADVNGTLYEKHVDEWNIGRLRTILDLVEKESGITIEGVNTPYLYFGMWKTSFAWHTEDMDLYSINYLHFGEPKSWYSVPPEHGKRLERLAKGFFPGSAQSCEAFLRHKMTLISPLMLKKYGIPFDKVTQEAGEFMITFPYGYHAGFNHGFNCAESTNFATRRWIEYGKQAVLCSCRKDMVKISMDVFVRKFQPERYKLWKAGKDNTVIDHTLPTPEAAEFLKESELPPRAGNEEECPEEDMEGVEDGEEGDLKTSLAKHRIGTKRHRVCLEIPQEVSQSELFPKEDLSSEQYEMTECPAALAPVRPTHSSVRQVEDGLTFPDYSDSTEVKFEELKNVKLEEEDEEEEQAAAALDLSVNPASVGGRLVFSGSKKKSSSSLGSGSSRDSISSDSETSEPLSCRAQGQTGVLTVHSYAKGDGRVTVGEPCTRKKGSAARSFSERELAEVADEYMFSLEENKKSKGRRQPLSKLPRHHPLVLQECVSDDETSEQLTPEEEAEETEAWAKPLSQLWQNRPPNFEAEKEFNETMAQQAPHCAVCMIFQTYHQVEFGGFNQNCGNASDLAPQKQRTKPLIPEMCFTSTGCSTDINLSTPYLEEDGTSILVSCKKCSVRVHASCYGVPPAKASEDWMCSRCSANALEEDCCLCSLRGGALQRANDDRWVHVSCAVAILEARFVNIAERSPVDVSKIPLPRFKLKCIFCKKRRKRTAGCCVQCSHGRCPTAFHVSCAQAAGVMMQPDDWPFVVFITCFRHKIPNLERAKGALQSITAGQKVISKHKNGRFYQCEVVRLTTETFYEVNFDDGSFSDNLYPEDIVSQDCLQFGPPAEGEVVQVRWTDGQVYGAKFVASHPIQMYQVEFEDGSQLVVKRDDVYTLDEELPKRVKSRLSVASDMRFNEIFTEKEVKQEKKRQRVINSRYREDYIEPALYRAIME

COc1cc2c(NC3CCN(C)CC3)cc(-c3ccc(C)o3)nc2cc1OCCCN1CCCC1 [CM-272, 6-methoxy-2-(5-methyl-2-furyl)-N-(1-methyl-4-piperidyl)-7-(3-pyrrolidin-1-ylpropoxy)quinolin-4-amine]
IC50 (DNMT3B): 1200 nM
inhibition at 10 µM (PRMT1): 73%
IC50 (PRMT1; BPS): 4000 nM
inhibition at 10 µM (PRMT8): 11%
inhibition at 10 µM (SETD2): 8%
inhibition at 10 µM (JMJD2A): 1%
inhibition at 10 µM (JMJD2C): 12%
inhibition at 10 µM (Jarid1B): 5%
P450s Inhibition: 1A2 (cytochrome P450 1A2): < 10%
solubility (Kinetic solubility): 118 µg/mL (≈ 246 µM)
PAMPA (Pe) (PAMPA permeability): 0.16 10-6 in nm/s
CC50 at 72 h [1]: 1780 nM
GI50 697: 913 nM
GI50 (SEM cells): 3320 nM
GI50 (NALM-20): > 5000 nM
GI50 (HELA): 689 nM
GI50 (A375): 357 nM
GI50 (WM-35): 854 nM
GI50 (PC3): 590 nM

COc1cc2c(NCC3CCN(C)CC3)cc(-c3ccc(C)o3)nc2cc1OCCCN1CCCC1 [CM-579, 6-methoxy-2-(5-methyl-2-furyl)-N-[(1-methyl-4-piperidyl)methyl]-7-(3-pyrrolidin-1-ylpropoxy)quinolin-4-amine]
IC50 (DNMT3B): 1000 nM
inhibition at 10 µM (PRMT1): 43%
inhibition at 10 µM (PRMT8): 12%
inhibition at 10 µM (SETD2): 0%
inhibition at 10 µM (JMJD2A): 30%
inhibition at 10 µM (JMJD2C): 13%
inhibition at 10 µM (Jarid1B): 27%
P450s Inhibition: 1A2 (cytochrome P450 1A2): < 10%
solubility (Kinetic solubility): > 144 µg/mL
PAMPA (Pe) (PAMPA permeability): 0.01 10-6 in nm/s
CC50 at 72 h [1]: 1300 nM
GI50 697: 4280 nM
GI50 (SEM cells): > 10000 nM
GI50 (NALM-20): > 10000 nM
GI50 (HELA): 109 nM
GI50 (A375): 48 nM
GI50 (WM-35): 168 nM
GI50 (PC3): 307 nM
